Read-outs that look alike come from different tables or passages of the source. Starred links: 1 amine or outer side, 2 acyl side, 3 side chain; linkers in the order of their positions; H or OH if unused. Positions of bridges follow the written chain, without caps; N, C: chain ends. Non-standard residues stand in square brackets, D forms with d. Residues, ends and D or L forms follow the SMILES beside them. Hyp = O=C(O)[C@@H]1C[C@@H](O)CN1; Agp = N=C(N)NC[C@H](N)C(=O)O; Ac4c = NC1(C(=O)O)CCC1; Aib = CC(C)(N)C(=O)O; CH2 = C([*:1])[*:2]; βAla = NCCC(=O)O
Assays:
human MC4R [1] = target: T1, human MC4R (Homo sapiens, UniProt P32245); assay: 125NDP-α-MSH competitive binding to membranes of BHK cells expressing human MC4 receptor (filtration assay)
T1 construct: expressed in transfected cells
Description: In Vitro ^125NDP-α-MSH Binding to Recombinant BHK Cells Expressing Human MC4 Receptor (Filtration Assay)
In order to assess the binding affinity of the selected compounds for the human MC4R competitive binding assays was performed with radiolabeled NDP-alpha MSH (^125NDP-α-MSH).
The assay was performed in 96-well filterplates (Unifilter) using BHK cells stably expressing the human MC4 receptor.
The BHK cell membranes were prepared from frozen or fresh cells that were homogenized in 20 mM HEPES pH 7.1, 5 mM MgCl2, 1 mg/ml bacitracin (buffer 1) and centrifuged at 15000 rpm at 4° C., 10 min in a Sorvall RC 5B plus, SS-34 rotor. The supernatant was discarded, and the pellets were re-suspended in buffer 1, homogenized and centrifuged two more times. The final pellets were re-suspended in buffer 1 and the protein concentration was measured and adjusted with buffer 1 to 5 mg/ml and the membrane preparation was kept at −80° C. until assay. The assay was run on a dilution of this cell membrane suspension without any further preparation. The suspension was diluted to give maximally 10% specific binding, i.e. to approx. 50-100 fold dilution, optimized after each membrane preparation. The assay was performed in a total volume of 200 μl: 50 μl of cell suspension, 50 μl of ^125NDP-α-MSH (apx. […] in final concentration), 50 μl of test compound and 50 μl binding buffer were mixed and incubated for 2 h at 25° C. (binding buffer: 25 mM HEPES, pH 7.0, 1 mM CaCl2), 1 mM MgSO4, 1 mM EGTA, 0.005% Tween™ 20 and 0.1% HSA or, alternatively, 0.1% ovalbumin (Sigma; catalogue No. A-5503)). Test compounds were dissolved in 100% DMSO and diluted in binding buffer in a dose range from 1 μM to 0.001 nM. Radiolabelled ligand and membranes were diluted in binding buffer. The incubation was stopped by dilution with 8×100 μl ice-cold 0.9% NaCl. The radioactivity retained on the filters was counted using a Packard Topcounter. The data were analysed by non-linear regression analysis of binding curves, using the Windows™ program GraphPad™ Prism (GraphPad Software, USA).

human MC4R [2] = target: T1, human MC4R; assay: Functional cAMP assay (CisBio HTRF) in BHK cells expressing human MC4R; format: cell-based; settings: for MC1R/MC4R cAMP EC50 ratio: MC1R cAMP EC50 divided by MC4R cAMP EC50
Description: In order to assess the potency of the compounds on human MC1R and human MC4R cAMP signalling was measured.
cAMP induction was measured by c-AMPdynamic2 assay, HTRF 62AM4PEC system from CisBio for the human MC1R and human MC4R according to the protocol provided by the vendor. BHK cells expressing the human MC1 or MC4 receptor were generated by stable transfection with expression vectors encoding the cDNA of either MC1R or MC4R.
In details; 25 μl compound—or standard solution were added in the respective wells. Compound was reconstituted in buffer (DMEM w/o phenol red, 10 mM
Hepes, lx Glutamine, 0.1% OV-albumin1, 1 mM IBMX) and serially diluted starting at 2 μM, 10-fold seven times. Dilutions were carried out in the same aforementioned buffer to the desired working concentration ranges (2× higher than the final concentration). 25 μl cell solution was then added and allowed to incubate for 30 min while lightly shaking, at 25° C. […] The provided components for the assay were reconstituted according to the CisBio assay protocol “3.1 supplied reagents and preparation procedure” in MilliQ purification system H2O and diluted 1:20 in lysis buffer. 25 μl cAMP-d2 and 25 μl Cryptate conjugate were added to all wells.
Plates were centrifuged at 1500 rpm for 30 sec and incubated for 1 h, lightly shaking, at 25° C. in a hotel stacker. The plates were read on Mithras LB 940 provided by Berthold Technologies The data were analysed by non-linear regression analysis of binding curves, using the Windows™ program GraphPad™ Prism (GraphPad Software, USA).
The latter is used when no full curve can be obtained in the concentration ranges indicated above.

[3] = human MC4R, BHK cell membranes, 125NDP-α-MSH radioligand, read-out: MC4R binding Ki
[4] = BHK cells expressing human MC4R, '>' = highest dose used with no response, read-out: MC4R cAMP EC50

T1 sequence (P32245 whole entry): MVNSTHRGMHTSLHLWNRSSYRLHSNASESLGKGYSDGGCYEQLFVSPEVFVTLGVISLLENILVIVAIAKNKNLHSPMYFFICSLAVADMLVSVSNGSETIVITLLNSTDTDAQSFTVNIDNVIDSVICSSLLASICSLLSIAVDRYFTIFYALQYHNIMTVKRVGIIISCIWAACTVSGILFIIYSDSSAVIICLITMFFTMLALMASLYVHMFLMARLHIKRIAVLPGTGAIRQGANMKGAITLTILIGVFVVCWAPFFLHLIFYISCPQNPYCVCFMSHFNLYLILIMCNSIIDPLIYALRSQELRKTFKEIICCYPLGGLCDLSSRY

| SMILES | Ki (human MC4R [1]; [3]) [nM] | EC50 (human MC4R [2]; [4]) [nM] | MC1R/MC4R cAMP EC50 ratio (human MC4R [2]) | Ki (human MC4R [1]) [nM] | EC50 (human MC4R [2]) [nM] |
| --- | --- | --- | --- | --- | --- |
| C[C@@H]1NC(=O)[C@H](C)NC(=O)[C@H](Cc2c[nH]c3ccccc23)NC(=O)[C@H](CCCNC(=N)N)NC(=O)[C@@H](Cc2ccccc2)NC(=O)[C@H](Cc2c[nH]cn2)NC(=O)[C@H](C)NC(=O)[C@H](C)NC(=O)[C@H](Cc2c[nH]c3ccccc23)NC(=O)[C@H](CCCNC(=N)N)NC(=O)[C@@H](Cc2ccccc2)NC(=O)[C@H](Cc2c[nH]cn2)NC1=O [Chem. 7, c[Ala-Ala-His-D-Phe-Arg-Trp-Ala-Ala- His-D-Phe-Arg-Trp]] (cyclo(AAH[dF]RWAAH[dF]RW)) | 0.47 | 0.06 | 76 | – | – |
| C[C@@H]1NC(=O)[C@@H]2CSSC[C@H](NC(=O)[C@H](Cc3c[nH]c4ccccc34)NC(=O)[C@H](CCCCN)NC(=O)[C@@H](Cc3ccccc3)NC(=O)[C@H](Cc3c[nH]cn3)NC1=O)C(=O)N[C@@H](C)C(=O)N[C@@H](Cc1c[nH]cn1)C(=O)N[C@H](Cc1ccccc1)C(=O)N[C@@H](CCCCN)C(=O)N[C@@H](Cc1c[nH]c3ccccc13)C(=O)N2 [Chem. 15, c[c[Cys-Ala-His-D-Phe-Lys-Trp-Cys]- Ala-His-D-Phe-Lys-Trp]] (cyclo(AH[dF]KWCAH[dF]KWC); disulfide 6-12) | 0.12 | 0.09 | 60 | – | – |
| C[C@@H]1NC(=O)[C@@H]2CSSC[C@H](NC(=O)[C@H](Cc3c[nH]c4ccccc34)NC(=O)[C@H](CCCCN(C)C)NC(=O)[C@@H](Cc3ccccc3)NC(=O)[C@H](Cc3c[nH]cn3)NC1=O)C(=O)N[C@@H](C)C(=O)N[C@@H](Cc1c[nH]cn1)C(=O)N[C@H](Cc1ccccc1)C(=O)N[C@@H](CCCCN(C)C)C(=O)N[C@@H](Cc1c[nH]c3ccccc13)C(=O)N2 [Chem. 18, c[c[Cys-Ala-His-D-Phe-Lys(Me)2-Trp- Cys]-Ala-His-D-Phe-Lys(Me)2-Trp]] | 0.38 | 0.12 | 35 | – | – |
| N=C(N)NCCC[C@@H]1NC(=O)[C@@H](Cc2ccccc2)NC(=O)[C@H](Cc2c[nH]cn2)NC(=O)C2(CCC2)NC(=O)[C@@H]2CSSC[C@H](NC(=O)[C@H](Cc3c[nH]c4ccccc34)NC1=O)C(=O)NC1(CCC1)C(=O)N[C@@H](Cc1c[nH]cn1)C(=O)N[C@H](Cc1ccccc1)C(=O)N[C@@H](CCCNC(=N)N)C(=O)N[C@@H](Cc1c[nH]c3ccccc13)C(=O)N2 [Chem. 20, c[c[Cys-ACBC-His-D-Phe-Arg-Trp- Cys]-ACBC-His-D-Phe-Arg-Trp]] (cyclo([Ac4c]H[dF]RWC[Ac4c]H[dF]RWC); disulfide 6-12) | – | – | 124 | 0.15 | 0.04 |
| N=C(N)NCCC[C@@H]1NC(=O)[C@@H](Cc2ccccc2)NC(=O)[C@H](Cc2c[nH]cn2)NC(=O)CCNC(=O)[C@@H]2CSSC[C@H](NC(=O)[C@H](Cc3c[nH]c4ccccc34)NC1=O)C(=O)NCCC(=O)N[C@@H](Cc1c[nH]cn1)C(=O)N[C@H](Cc1ccccc1)C(=O)N[C@@H](CCCNC(=N)N)C(=O)N[C@@H](Cc1c[nH]c3ccccc13)C(=O)N2 [Chem. 25, c[c[Cys-βAla-His-D-Phe-Arg-Trp- Cys]-βAla-His-D-Phe-Arg-Trp]] (cyclo(C[βAla]H[dF]RWC[βAla]H[dF]RW); disulfide 1-7) | 0.04 | 0.02 | 17 | – | – |
| N=C(N)NCCC[C@@H]1NC(=O)[C@@H](Cc2ccccc2)NC(=O)[C@@H]2C[C@@H](O)CN2C(=O)[C@@H]2CSCSC[C@H](NC(=O)[C@H](Cc3c[nH]c4ccccc34)NC1=O)C(=O)N1C[C@H](O)C[C@H]1C(=O)N[C@H](Cc1ccccc1)C(=O)N[C@@H](CCCNC(=N)N)C(=O)N[C@@H](Cc1c[nH]c3ccccc13)C(=O)N2 [Chem. 26, c[c[Cys-Hyp-D-Phe-Arg-Trp-Cys]- Hyp-D-Phe-Arg-Trp]] (cyclo(C[Hyp][dF]RWC[Hyp][dF]RW); linker 1-6 via CH2) | 0.44 | – | 96 | – | – |
| N=C(N)NCCC[C@@H]1NC(=O)[C@@H](Cc2ccccc2)NC(=O)[C@H](Cc2c[nH]cn2)NC(=O)[C@@H]2CCCN2C(=O)[C@@H]2CSSC[C@H](NC(=O)[C@H](Cc3c[nH]c4ccccc34)NC1=O)C(=O)N1CCC[C@H]1C(=O)N[C@@H](Cc1c[nH]cn1)C(=O)N[C@H](Cc1ccccc1)C(=O)N[C@@H](CCCNC(=N)N)C(=O)N[C@@H](Cc1c[nH]c3ccccc13)C(=O)N2 [Chem. 30, c[c[Cys-Pro-His-D-Phe-Arg-Trp-Cys]- Pro-His-D-Phe-Arg-Trp]] (cyclo(CPH[dF]RWCPH[dF]RW); disulfide 1-7) | 0.09 | 0.03 | 5 | – | – |
| CC(C)[C@H]1NC(=O)[C@@H]2CSSC[C@H](NC(=O)[C@H](Cc3c[nH]c4ccccc34)NC(=O)[C@H](CCCNC(=N)N)NC(=O)[C@@H](Cc3ccccc3)NC(=O)[C@H](Cc3c[nH]cn3)NC1=O)C(=O)N[C@H](C(C)C)C(=O)N[C@@H](Cc1c[nH]cn1)C(=O)N[C@H](Cc1ccccc1)C(=O)N[C@@H](CCCNC(=N)N)C(=O)N[C@@H](Cc1c[nH]c3ccccc13)C(=O)N2 [Chem. 34, c[c[Cys-D-Val-His-D-Phe-Arg-Trp- Cys]-D-Val-His-D-Phe-Arg-Trp]] (cyclo(C[dV]H[dF]RWC[dV]H[dF]RW); disulfide 1-7) | 0.88 | 0.12 | 22 | – | – |
| CC(C)[C@@H]1NC(=O)[C@@H]2CSSC[C@H](NC(=O)[C@H](Cc3c[nH]c4ccccc34)NC(=O)[C@H](CCCNC(=N)N)NC(=O)[C@@H](Cc3ccccc3)NC(=O)[C@H](Cc3c[nH]cn3)NC1=O)C(=O)N[C@@H](C(C)C)C(=O)N[C@@H](Cc1c[nH]cn1)C(=O)N[C@H](Cc1ccccc1)C(=O)N[C@@H](CCCNC(=N)N)C(=O)N[C@@H](Cc1c[nH]c3ccccc13)C(=O)N2 [Chem. 36, c[c[Cys-Val-His-D-Phe-Arg-Trp-Cys]- Val-His-D-Phe-Arg-Trp]] (cyclo(CVH[dF]RWCVH[dF]RW); disulfide 1-7) | 0.12 | 0.04 | 26 | – | – |
| CC1(C)NC(=O)[C@@H]2CSSC[C@H](NC(=O)[C@H](Cc3c[nH]c4ccccc34)NC(=O)[C@H](CCCCN)NC(=O)[C@@H](Cc3ccccc3)NC(=O)[C@H](Cc3c[nH]cn3)NC1=O)C(=O)NC(C)(C)C(=O)N[C@@H](Cc1c[nH]cn1)C(=O)N[C@H](Cc1ccccc1)C(=O)N[C@@H](CCCCN)C(=O)N[C@@H](Cc1c[nH]c3ccccc13)C(=O)N2 [Chem. 40, c[c[Cys-Aib-His-D-Phe-Lys-Trp-Cys]- Aib-His-D-Phe-Lys-Trp]] (cyclo([Aib]H[dF]KWC[Aib]H[dF]KWC); disulfide 6-12) | 0.31 | 0.29 | 38 | – | – |
| CC1(C)NC(=O)[C@@H]2CSSC[C@H](NC(=O)[C@H](Cc3c[nH]c4ccccc34)NC(=O)[C@H](CNC(=N)N)NC(=O)[C@@H](Cc3ccccc3)NC(=O)[C@H](Cc3c[nH]cn3)NC1=O)C(=O)NC(C)(C)C(=O)N[C@@H](Cc1c[nH]cn1)C(=O)N[C@H](Cc1ccccc1)C(=O)N[C@@H](CNC(=N)N)C(=O)N[C@@H](Cc1c[nH]c3ccccc13)C(=O)N2 [Chem. 43, c[c[Cys-Aib-His-D-Phe-AGP-Trp- Cys]-Aib-His-D-Phe-AGP-Trp]] (cyclo([Agp]WC[Aib]H[dF][Agp]WC[Aib]H[dF]); disulfide 3-9) | 2.61 | 0.44 | 107 | – | – |

Reference: patent publication US20200223889A1, “Bicyclic Compounds Capable of Binding to Melanocortin 4 Receptor” (Novo Nordisk A/S, priority 2017, published 2020)
